# Reference: patent publication US6673790B1, “Indolin-2-one derivatives, preparation and their use as ocytocin receptor ligands” (Sanofi-Synthelabo, priority 2002, dated 2004)
# Key:
# [1] = target: T1, cells expressing human oxytocin receptors (Homo sapiens, UniProt P30559); experiment: measurement of intracellular calcium, agonist or antagonist nature; type: cell-based
# T1 sequence (P30559 1-389): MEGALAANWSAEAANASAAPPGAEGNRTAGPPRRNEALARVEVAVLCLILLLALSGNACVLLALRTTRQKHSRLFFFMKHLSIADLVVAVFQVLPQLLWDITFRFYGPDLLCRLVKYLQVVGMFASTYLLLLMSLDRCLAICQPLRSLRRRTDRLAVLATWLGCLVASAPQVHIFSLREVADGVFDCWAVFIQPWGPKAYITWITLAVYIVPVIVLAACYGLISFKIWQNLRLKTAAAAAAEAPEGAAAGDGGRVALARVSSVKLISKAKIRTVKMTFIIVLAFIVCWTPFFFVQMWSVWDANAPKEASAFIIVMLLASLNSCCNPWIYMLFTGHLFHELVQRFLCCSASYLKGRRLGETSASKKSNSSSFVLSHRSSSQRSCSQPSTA
# Protocol: The agonist or antagonist nature of the compounds is determined in vitro in a test for the measurement of intracellular calcium with respect to cells expressing human oxytocin receptors according to the general technique described in Am. J. Physiol., 268 (Heart Circ. Physiol., 37), 1995, H404-H410.
# [2] = target: T2, human vasopressin V1b receptors (Homo sapiens, UniProt P47901); experiment: affinity for vasopressin V1b receptors (method of Sugimoto et al.); type: binding; conditions: read-out: IC50 with respect to the V1b receptors
# T2 sequence (P47901 1-424): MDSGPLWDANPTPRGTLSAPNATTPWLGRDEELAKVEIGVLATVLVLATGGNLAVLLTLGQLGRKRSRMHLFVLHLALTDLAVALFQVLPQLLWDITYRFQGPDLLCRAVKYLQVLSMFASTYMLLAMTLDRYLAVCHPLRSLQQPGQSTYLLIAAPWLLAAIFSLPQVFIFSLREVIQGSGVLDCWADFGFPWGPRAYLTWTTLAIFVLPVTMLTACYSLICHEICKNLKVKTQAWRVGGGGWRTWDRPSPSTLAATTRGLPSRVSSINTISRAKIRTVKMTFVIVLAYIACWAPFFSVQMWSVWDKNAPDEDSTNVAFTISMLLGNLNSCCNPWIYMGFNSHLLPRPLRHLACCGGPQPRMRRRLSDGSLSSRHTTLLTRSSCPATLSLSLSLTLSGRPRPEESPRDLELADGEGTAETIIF
# Description: (§1) The affinity of the compounds according to the invention for human vasopressin V1a receptors (method described by M. Thibonnier et al. in J. Biol. Chem., 1994, 269, 3304-3310), V1b receptors (method described by T. Sugimoto et al. in J. Biol. Chem., 1994, 269, 27088-27092) and V2 receptors (method described by M. Birnbaumer et al. in Nature (Lond.), 1992, 357, 333-335) has also been studied. The compounds studied have little or no affinity for the V1a, V1b and V2 receptors.
# [3] = target: human vasopressin V2 receptors (Homo sapiens, UniProt P30518); experiment: affinity for vasopressin V2 receptors (method of Birnbaumer et al.); type: binding; conditions: read-out: IC50 with respect to the V2 receptors
# Sequence of human vasopressin V2 receptors (P30518 whole entry): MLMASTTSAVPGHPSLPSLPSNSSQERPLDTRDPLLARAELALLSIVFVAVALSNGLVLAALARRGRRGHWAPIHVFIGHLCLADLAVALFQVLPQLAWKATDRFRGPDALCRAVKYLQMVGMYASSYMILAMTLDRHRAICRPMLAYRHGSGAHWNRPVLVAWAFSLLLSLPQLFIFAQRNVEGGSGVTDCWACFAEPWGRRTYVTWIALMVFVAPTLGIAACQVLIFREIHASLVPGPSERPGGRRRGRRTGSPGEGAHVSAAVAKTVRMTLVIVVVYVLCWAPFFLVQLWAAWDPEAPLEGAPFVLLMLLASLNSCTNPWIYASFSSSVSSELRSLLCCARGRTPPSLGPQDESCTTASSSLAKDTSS
# Description: as §1
# [4] = target: T3, human uterine oxytocin receptors (Homo sapiens, UniProt P30559); experiment: in vitro binding test: displacement of a radioiodinated oxytocin analogue in a membrane preparation
# T3 construct: host or cells: membrane preparation
# T3 sequence (P30559 1-389): T1 sequence (P30559 1-389)
# Protocol: The compounds according to the invention have formed the subject of biochemical and pharmacological studies. The affinity of the compounds according to the invention for oxytocin receptors was determined in an in vitro binding test using the method described by J. Elands et al. in Eur. Pharmacol., 1987, 147, 192-207. This method consists in studying in vitro the displacement of a radioiodinated oxytocin analogue at the oxytocin receptors in a membrane preparation of human uterine oxytocin receptors. The IC50 values (concentration which inhibits 50% of the binding of the radioiodinated oxytocin analogue to its receptors) are low and vary from 10^−10 to 10^−6 M in the latter test.
# [5] = target: human vasopressin V1a receptors (Homo sapiens, UniProt P37288); experiment: affinity for vasopressin V1a receptors (method of Thibonnier et al.); type: binding; conditions: read-out: IC50 with respect to the V1a receptors
# Sequence of human vasopressin V1a receptors (P37288 whole entry): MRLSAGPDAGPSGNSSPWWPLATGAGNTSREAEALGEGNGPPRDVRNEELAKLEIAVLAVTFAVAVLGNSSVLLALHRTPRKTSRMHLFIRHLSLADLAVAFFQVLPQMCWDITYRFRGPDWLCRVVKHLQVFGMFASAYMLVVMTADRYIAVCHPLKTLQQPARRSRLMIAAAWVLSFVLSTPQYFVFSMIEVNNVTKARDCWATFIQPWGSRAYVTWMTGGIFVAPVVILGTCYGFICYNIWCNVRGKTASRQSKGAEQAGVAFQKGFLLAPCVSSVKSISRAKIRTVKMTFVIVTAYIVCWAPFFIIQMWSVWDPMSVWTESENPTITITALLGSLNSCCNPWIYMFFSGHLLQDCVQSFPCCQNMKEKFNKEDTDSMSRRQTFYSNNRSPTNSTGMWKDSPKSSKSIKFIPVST
# Description: as §1
SMILES,melting point [°C],further results
"COc1ccc(CN2C(=O)C(C)(c3ccccc3Cl)c3cc(Cl)ccc32)c(OC)c1 (single isomer, unassigned) [dextrorotatory enantiomer of Example 1, 5-Chloro-3-(2-chlorophenyl)-1-(2,4-dimethoxybenzyl)-3-methylindolin-2-one]",–,agonist or antagonist nature [1]: antagonist; IC50 ([1]; read-out: IC50 as antagonist): 3.2 ± 1.9 nM
CCN(C(=O)c1ccc(Cl)c(C2(C)C(=O)N(Cc3ccc(OC)cc3OC)c3ccc(Cl)cc32)c1)C(C)C (stereo not shown),102.8,–
COc1ccc(CN2C(=O)C(C)(c3cc(N(C)S(=O)(=O)c4ccccc4)ccc3Cl)c3cc(Cl)ccc32)c(OC)c1 (stereo not shown) (hydrate or solvate),73,–
COCC1CCCN1C(=O)c1ccc(Cl)c(C2(C)C(=O)N(Cc3ccc(OC)cc3OC)c3ccc(Cl)cc32)c1 (stereo not shown),98,–
COc1ccc(CN2C(=O)C(C)(c3cc(C(=O)NC4CCCCC4)ccc3Cl)c3cc(Cl)ccc32)c(OC)c1 (stereo not shown),129.8,–
COC(=O)C1CCCCN1C(=O)c1ccc(Cl)c(C2(C)C(=O)N(Cc3ccc(OC)cc3OC)c3ccc(Cl)cc32)c1 (stereo not shown),116,–
CCN(CCc1ccccc1)C(=O)c1ccc(Cl)c(C2(C)C(=O)N(Cc3ccc(OC)cc3OC)c3ccc(Cl)cc32)c1 (stereo not shown),111.7,–
CCN(CCOC)C(=O)c1ccc(Cl)c(C2(C)C(=O)N(Cc3ccc(OC)cc3OC)c3ccc(Cl)cc32)c1 (stereo not shown),86.3,–
COc1ccc(CN2C(=O)C(C)(c3cc(CN4CCOCC4)ccc3Cl)c3cc(Cl)ccc32)c(OC)c1 (stereo not shown),145,–
"COc1ccc(CN2C(=O)C(C)(c3ccccc3Cl)c3cc(Cl)ccc32)c(OC)c1 (racemic) [Example 1, 5-Chloro-3-(2-chlorophenyl)-1-(2,4-dimethoxybenzyl)-3-methylindolin-2-one]",–,IC50 [2]: > 1000 nM; IC50 [3]: > 1000 nM; IC50 [4]: < 50 nM; IC50 [5]: > 1000 nM

# Continued, in another order:
melting point [°C],SMILES,further results
248,CCNC(=O)c1ccc(Cl)c(C2(C)C(=O)N(Cc3ccc(OC)cc3OC)c3ccc(Cl)cc32)c1 (stereo not shown) (hydrate or solvate),–
184,COc1ccc(CN2C(=O)C(C)(c3cc(C(=O)N(C)C)ccc3Cl)c3cc(Cl)ccc32)c(OC)c1 (stereo not shown) (hydrate or solvate),–
166,CCN(C)C(=O)c1ccc(Cl)c(C2(C)C(=O)N(Cc3ccc(OC)cc3OC)c3ccc(Cl)cc32)c1 (stereo not shown),–
114,COCCOCc1ccc(Cl)c(C2(C)C(=O)N(Cc3ccc(OC)cc3OC)c3ccc(Cl)cc32)c1 (stereo not shown),–
191,COCC(=O)Nc1ccc(Cl)c(C2(C)C(=O)N(Cc3ccc(OC)cc3OC)c3ccc(Cl)cc32)c1 (stereo not shown),–
